System: IL-5 production in human blood
Assay: In vitro inhibition of IL-5 production in human blood (phytohemagglutinin-stimulated whole blood, ELISA)
Type: cell-based
Conditions: test dose 1×10^−6 M, phytohemagglutinin 2 μg/ml, 48 hours; for inhibition at 1 µM: read-out: % inh. (percentage inhibition of IL-5 production)
Protocol: EXAMPLE C.1: IN VITRO INHIBITION OF IL-5 PRODUCTION IN HUMAN BLOOD
Peripheral blood from healthy male donors was drawn into heparinized syringes (12.5 U heparin/ml). Blood samples were three-fold diluted in RMPI 1640 medium (Life Technologies, Belgium) supplemented with 2 mM L-glutamine, 100 U/ml penicillin and 100 μg/ml streptomycin, and 300 μl fractions were distributed in 24-well multidisc plates. Blood samples were preincubated (60 minutes at 37° C.) in a humidified 6% CO2-atmosphere with 100 μl of drug solvent (final concentration 0.02% dimethylsulfoxide in RPMI 1640) or with 100 μl of an appropriate dose of test compound before being stimulated by the addition of 100 μl of phytohemagglutinin HA17 (Murex, UK) at a final concentration of 2 μg/ml. After 48 hours, cell-free supernatant fluids were collected by centrifugation and stored at −70° C. until tested for the presence of IL-5.
IL-5 measurements were conducted as described in Van Wauwe et al. (1996, Inflamm Res, 45, 357-363) on page 358 using ELISA.
Table 6 lists the percentage inhibition of IL-5 production (column “% inh”) at a test dose of 1×10^−6 M, or in case the percentage inhibition is marked with an “*” 1×10^−5 M, for the compounds of the present invention.

Compound	% inh. (percentage inhibition of IL-5 production) [%]	inhibition at 1 µM [%]
1-[[2-[1-[2,6-dichloro-4-(4,5-dihydro-3,5-dioxo-1,2,4-triazin-2(3H)-yl)-phenyl]-1-methylethyl]-4-phenyl-2-thiazolyl]acetyl-4-phenylmethyl)piperazine [Compound 35]	63	–
1′-[[2-[1-[2,6-dichloro-4-(4,5-dihydro-3,5-dioxo-1,2,4-triazin-2(3H)-yl)phenyl]-1-methylethyl-4-phenyl-5-thiazolyl]acetyl]-(1,4′-dipiperidine) [Compound 24]	32	–
2-[3,5-dichloro-4-(2-pyridinyl-methyl)phenyl]-1,2,4-triazine-3,5(2H,4H)-dione hydrochloride(:1); hydrate(1:1) [Compound 107]	14	–
3-[2-[1-[2,6-dichloro-4-(4,5-dihydro-3,5-dioxo-1,2,4-triazin-2(3H)-yl)phenyl]-1-methylethyl-4-(2-chlorophenyl)-5-thiazolyl]-N-(2-methoxyethyl)-benzamide [Compound 63]	38	–
CC(C)(c1nc(-c2ccccc2)c(C(O)c2ccccc2)s1)c1c(Cl)cc(-n2ncc(=O)[nH]c2=O)cc1Cl (racemic) [Compound 29, (±)-2-[3,5-dichloro-4-[1-[5-(hydroxyphenylmethyl)4-phenyl-2-thiazolyl]-1-methyl-ethyl]phenyl]-1,2,4-triazin-3,5(2H,4H)-dione]	–	71
CC(C)(c1nc(-c2ccccc2)cs1)c1c(Cl)cc(-n2ncc(=O)[nH]c2=O)cc1Cl [Compound 1, 2-[3,5-dichloro-4-[1-methyl-1-(4-phenyl-2-thiazolyl)ethyl]phenyl]-1,2,4-triazine-3,5(2H,4H)-dione]	–	90.5
CN(C)Cc1sc(C(C)(C)c2c(Cl)cc(-n3ncc(=O)[nH]c3=O)cc2Cl)nc1-c1ccccc1.Cl [Compound 2]	92	–
Cc1sc(C(C)(C)c2c(Cl)cc(-n3ncc(=O)[nH]c3=O)cc2Cl)nc1-c1cccc(Cl)c1 [Compound 3, 2-[3,5-di-chloro-4-[1-[4-(3-chlorophenyl)-5-methyl-2-thiazolyl]-1-methylethyl]phenyl]-1,2,4-triazine-3,5(2H,4H)-dione]	–	92
CC(C)(c1nc(-c2ccccc2Cl)cs1)c1c(Cl)cc(-n2ncc(=O)[nH]c2=O)cc1Cl [Compound 4]	94	–
CC(C)(c1nc(-c2cccs2)cs1)c1c(Cl)cc(-n2ncc(=O)[nH]c2=O)cc1Cl [Compound 5]	90	–
CCOC(=O)c1sc(C(C)(C)c2c(Cl)cc(-n3ncc(=O)[nH]c3=O)cc2Cl)nc1-c1ccccc1 [Compound 6]	94	–
CC(C)(c1nc(-c2ccncc2)cs1)c1c(Cl)cc(-n2ncc(=O)[nH]c2=O)cc1Cl [Compound 7]	88	–
CC(C)(c1nc(-c2cccc(Cl)c2)cs1)c1c(Cl)cc(-n2ncc(=O)[nH]c2=O)cc1Cl [Compound 8]	85	–
CCOC(=O)Cc1sc(C(C)(C)c2c(Cl)cc(-n3ncc(=O)[nH]c3=O)cc2Cl)nc1-c1ccccc1 [Compound 9]	88	–
Cc1sc(C(C)(C)c2c(Cl)cc(-n3ncc(=O)[nH]c3=O)cc2Cl)nc1-c1ccccc1 [Compound 10]	85	–
CC(C)(c1nc(-c2ccccc2F)cs1)c1c(Cl)cc(-n2ncc(=O)[nH]c2=O)cc1Cl [Compound 11]	88	–
CC(C)(c1nc(-c2ccc(Br)cc2)cs1)c1c(Cl)cc(-n2ncc(=O)[nH]c2=O)cc1Cl [Compound 12]	70	–
CC(C)(c1nc(-c2c(F)cccc2F)cs1)c1c(Cl)cc(-n2ncc(=O)[nH]c2=O)cc1Cl [Compound 13]	75	–
CC(C)(c1nc(-c2ccccc2)c(N2CCOCC2)s1)c1c(Cl)cc(-n2ncc(=O)[nH]c2=O)cc1Cl [Compound 14]	78	–
Cc1sc(C(C)(C)c2c(Cl)cc(-n3ncc(=O)[nH]c3=O)cc2Cl)nc1-c1ccccc1F [Compound 15]	81	–
CN1CCN(c2sc(C(C)(C)c3c(Cl)cc(-n4ncc(=O)[nH]c4=O)cc3Cl)nc2-c2ccccc2)CC1 [Compound 16]	57	–
Cc1sc(C(C)(C)c2c(Cl)cc(-n3ncc(=O)[nH]c3=O)cc2Cl)nc1-c1cccc(F)c1 [Compound 17]	94	–

Compound	% inh. (percentage inhibition of IL-5 production) [%]	inhibition at 1 µM [%]
CC(C)(c1nc(-c2ccc(F)cc2F)cs1)c1c(Cl)cc(-n2ncc(=O)[nH]c2=O)cc1Cl [Compound 18]	91	–
CC(C)(c1nc(-c2ccccc2)c(CC(=O)O)s1)c1c(Cl)cc(-n2ncc(=O)[nH]c2=O)cc1Cl [Compound 19, 2-[1-[2,6-dichloro-4-(4,5-dihydro-3,5-dioxo-1,2,4-triazin-2(3H)-yl)phenyl]1-α-methylethyl]-4-phenyl-5-thiazoleacetic acid]	13	–
CC(C)(c1nc(-c2ccccc2)c(CC(=O)N2CCOCC2)s1)c1c(Cl)cc(-n2ncc(=O)[nH]c2=O)cc1Cl [Compound 20]	80	–
CC(C)(c1nc(-c2ccccc2)c(CC(=O)N2CCC(O)CC2)s1)c1c(Cl)cc(-n2ncc(=O)[nH]c2=O)cc1Cl [Compound 22]	18	–
CC(C)(c1nc(-c2ccccc2)c(-c2ccccc2)s1)c1c(Cl)cc(-n2ncc(=O)[nH]c2=O)cc1Cl [Compound 23, 2-[3,5-dichloro-4-[1-(4,5-diphenyl-2-thiazolyl)-1-methylethyl]phenyl]-1,2,4-triazine-3,5(2H,4H)-dione]	–	91
CC(C)(c1nc(-c2ccccc2)c(C(=O)c2ccccc2)s1)c1c(Cl)cc(-n2ncc(=O)[nH]c2=O)cc1Cl [Compound 25]	79	–
COc1ccccc1-c1csc(C(C)(C)c2c(Cl)cc(-n3ncc(=O)[nH]c3=O)cc2Cl)n1 [Compound 26]	84	–
Cc1sc(C(C)(C)c2c(Cl)cc(-n3ncc(=O)[nH]c3=O)cc2Cl)nc1-c1ccccc1Cl [Compound 27]	77	–
CC(C)(c1nc(-c2cccc(F)c2)cs1)c1c(Cl)cc(-n2ncc(=O)[nH]c2=O)cc1Cl [Compound 28]	83	–
COCc1sc(C(C)(C)c2c(Cl)cc(-n3ncc(=O)[nH]c3=O)cc2Cl)nc1-c1ccccc1 [Compound 30]	93	–
Cc1nc(C(C)(C)c2c(Cl)cc(-n3ncc(=O)[nH]c3=O)cc2Cl)sc1-c1ccccc1 [Compound 31, 2-[3,5-dichloro-4-[1-methyl-1-(4-methyl-5-phenyl-2-thiazolyl)ethyl]phenyl]-1,2,4-triazine-3,5(2H,4H)-dione]	–	87
CC(C)(c1nc(-c2ccccc2Cl)c(-c2ccccc2)s1)c1c(Cl)cc(-n2ncc(=O)[nH]c2=O)cc1Cl [Compound 32]	91	–
CC(C)(c1nc(-c2ccccc2)c(-c2cccnc2)s1)c1c(Cl)cc(-n2ncc(=O)[nH]c2=O)cc1Cl [Compound 33, 2-[3,5-dichloro-4-[1-methyl-1-[4-phenyl-5-(3-pyridinyl)-2-thiazolyl]ethyl]phenyl]-1,2,4-triazine-3,5(2H,4H)-dione]	–	90
CC(C)(c1nc(-c2ccccc2F)c(-c2ccccc2)s1)c1c(Cl)cc(-n2ncc(=O)[nH]c2=O)cc1Cl [Compound 34]	93	–
CC(C)(c1nc(-c2cccc(Cl)c2)c(-c2ccccc2)s1)c1c(Cl)cc(-n2ncc(=O)[nH]c2=O)cc1Cl [Compound 37]	92	–
Cc1ccccc1-c1nc(C(C)(C)c2c(Cl)cc(-n3ncc(=O)[nH]c3=O)cc2Cl)sc1-c1ccccc1 [Compound 38]	93	–
CC(=O)N1CCC(c2sc(C(C)(C)c3c(Cl)cc(-n4ncc(=O)[nH]c4=O)cc3Cl)nc2-c2ccccc2)CC1 [Compound 39]	72	–
Cc1ccccc1-c1csc(C(C)(C)c2c(Cl)cc(-n3ncc(=O)[nH]c3=O)cc2Cl)n1 [Compound 40]	89	–
COCCN1CCN(Cc2sc(C(C)(C)c3c(Cl)cc(-n4ncc(=O)[nH]c4=O)cc3Cl)nc2-c2ccccc2)CC1 [Compound 42, 2-[3,5-dichloro-4-[1-[5-[[4-(2-methoxyethyl)-1-piperazinyl]methyl]-4-phenyl-2-thiazolyl]-1-methylethyl]phenyl]-1,2,4-triazine-3,5(2H,4H)-dione]	–	26
CC(C)(c1nc(-c2ccccc2)c(Cc2ccccc2)s1)c1c(Cl)cc(-n2ncc(=O)[nH]c2=O)cc1Cl [Compound 43, 2-[3,5-dichloro-4-[1-methyl-1-[4-phenyl-5-(phenylmethyl)-2-thiazolyl]ethyl]phenyl]-1,2,4-triazine-3,5(2H,4H)-dione]	–	86
COCc1cccc(-c2nc(C(C)(C)c3c(Cl)cc(-n4ncc(=O)[nH]c4=O)cc3Cl)sc2C)c1 [Compound 44]	81	–
CC(C)(c1nc(-c2ccccc2)c(CCc2ccccc2)s1)c1c(Cl)cc(-n2ncc(=O)[nH]c2=O)cc1Cl [Compound 45]	85	–

From patent publication US6894046B2, “IL-5 inhibiting 6-azauracil derivatives” (Janssen Pharmaceutica N.V., priority 1998, dated 2005)
